The source of these data is PMC4406157, “Irreversible endo-Selective Diels–Alder Reactions of Substituted Alkoxyfurans: A General Synthesis of endo-Cantharimides” (Chemistry (Weinheim an Der Bergstrasse, Germany), 2015).

For series [1], the target named is KCNH2 (human Ether-à-go-go-Related Gene) (Homo sapiens, UniProt Q12809). Put plainly: KCNH2 (hERG) Human Antagonist Barracuda Electrophysiology Population Patch Clamp. It is filed as cell-based. The note with it: read-out: IC50 hERG receptor (KCNH2 antagonist). From the text: (§1) An important challenge for drug development is the generation of novel heterocyclic building blocks with suitable properties for use in screening and medicinal chemistry programs.[34] The cantharimides accessed using this methodology have appropriate physicochemical properties for lead-like compounds, including lipophilicity,[35] molecular weight and polar surface area[36] (Figure 3). Another attractive feature of these scaffolds is the high proportion of sp^3-hybridized carbon atoms, which is typically associated with improved protein binding selectivity and frequency, better solubility and a reduced chance of off-target effects.[37] Indeed, cantharimides 7, 10, endo-3 f and exo-3 f were screened against the hERG receptor (IC50>50 μM) and the aryl hydrocarbon receptor (EC50>100 μM), which are responsible for common off target effects, and no affinity was observed.
Compound Assay Parameter Value/µM
endo-3f KCNH2 (human Ether -à-go-go-Related Gene) Human Antagonist IC50 >50 […]
(§2) (1 picture or pasted object on this page, not shown here)
(In general: hERG is a cardiac potassium channel; its block is linked to QT prolongation.)

In series [2] the target is T1, Aryl Hydrocarbon Receptor (AhR) (Homo sapiens, UniProt P35869).
T1 construct: LS180 CYP1A1 FRET; endogenous in cells; host or cells: LS180
T1 sequence (P35869 11-848): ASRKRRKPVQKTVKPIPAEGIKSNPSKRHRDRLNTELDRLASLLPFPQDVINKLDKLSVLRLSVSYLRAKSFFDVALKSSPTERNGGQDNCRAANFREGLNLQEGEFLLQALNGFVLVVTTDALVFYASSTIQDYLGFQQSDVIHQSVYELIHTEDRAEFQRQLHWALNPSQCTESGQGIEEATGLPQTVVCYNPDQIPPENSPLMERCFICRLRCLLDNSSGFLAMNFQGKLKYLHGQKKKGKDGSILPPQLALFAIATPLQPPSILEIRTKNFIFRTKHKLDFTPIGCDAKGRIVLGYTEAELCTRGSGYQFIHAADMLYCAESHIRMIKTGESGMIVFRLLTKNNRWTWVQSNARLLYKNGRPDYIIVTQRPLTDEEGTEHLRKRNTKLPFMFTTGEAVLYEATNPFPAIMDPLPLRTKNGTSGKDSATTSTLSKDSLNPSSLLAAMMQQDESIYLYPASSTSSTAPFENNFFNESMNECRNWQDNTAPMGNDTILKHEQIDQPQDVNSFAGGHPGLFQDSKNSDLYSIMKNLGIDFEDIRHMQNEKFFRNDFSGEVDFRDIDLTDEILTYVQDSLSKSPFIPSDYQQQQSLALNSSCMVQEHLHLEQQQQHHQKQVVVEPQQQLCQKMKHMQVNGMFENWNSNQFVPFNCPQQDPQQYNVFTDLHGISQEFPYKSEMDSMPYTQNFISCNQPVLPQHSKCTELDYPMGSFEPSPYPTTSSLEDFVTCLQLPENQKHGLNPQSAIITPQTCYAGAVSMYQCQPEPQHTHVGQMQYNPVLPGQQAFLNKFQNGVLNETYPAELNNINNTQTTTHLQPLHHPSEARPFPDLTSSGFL
Put plainly: Aryl Hydrocarbon Receptor (AhR) Human LS180 CYP1A1 FRET. The series is classed as cell-based. The settings on record: LS180 cells.
Text: as §1, with “observed. […]” for “observed.”
endo-3f Aryl Hydrocarbon Receptor (AhR) Human LS180 CYP1A1 FRET - EC50 >100
exo-3f Aryl Hydrocarbon Receptor (AhR) Human LS180 CYP1A1 FRET - EC50 >100
7 Aryl Hydrocarbon Receptor (AhR) Human LS180 CYP1A1 FRET - EC50 >100
10 Aryl Hydrocarbon Receptor (AhR) Human LS180 CYP1A1 FRET - EC50 >100
as §2

Series [3] can be described thus: in vitro clearance in the presence of human microsomes. The note with it: IVC testing performed by Cyprotex. It is filed as in vitro ADME.
Text: as §1
[38] IVC testing performed by Cyprotex, 15 Beech Lane, Macclesfield, Cheshire, SK10 2DR, UK

Chain of KCNH2 (human Ether-à-go-go-Related Gene) (Q12809 whole entry): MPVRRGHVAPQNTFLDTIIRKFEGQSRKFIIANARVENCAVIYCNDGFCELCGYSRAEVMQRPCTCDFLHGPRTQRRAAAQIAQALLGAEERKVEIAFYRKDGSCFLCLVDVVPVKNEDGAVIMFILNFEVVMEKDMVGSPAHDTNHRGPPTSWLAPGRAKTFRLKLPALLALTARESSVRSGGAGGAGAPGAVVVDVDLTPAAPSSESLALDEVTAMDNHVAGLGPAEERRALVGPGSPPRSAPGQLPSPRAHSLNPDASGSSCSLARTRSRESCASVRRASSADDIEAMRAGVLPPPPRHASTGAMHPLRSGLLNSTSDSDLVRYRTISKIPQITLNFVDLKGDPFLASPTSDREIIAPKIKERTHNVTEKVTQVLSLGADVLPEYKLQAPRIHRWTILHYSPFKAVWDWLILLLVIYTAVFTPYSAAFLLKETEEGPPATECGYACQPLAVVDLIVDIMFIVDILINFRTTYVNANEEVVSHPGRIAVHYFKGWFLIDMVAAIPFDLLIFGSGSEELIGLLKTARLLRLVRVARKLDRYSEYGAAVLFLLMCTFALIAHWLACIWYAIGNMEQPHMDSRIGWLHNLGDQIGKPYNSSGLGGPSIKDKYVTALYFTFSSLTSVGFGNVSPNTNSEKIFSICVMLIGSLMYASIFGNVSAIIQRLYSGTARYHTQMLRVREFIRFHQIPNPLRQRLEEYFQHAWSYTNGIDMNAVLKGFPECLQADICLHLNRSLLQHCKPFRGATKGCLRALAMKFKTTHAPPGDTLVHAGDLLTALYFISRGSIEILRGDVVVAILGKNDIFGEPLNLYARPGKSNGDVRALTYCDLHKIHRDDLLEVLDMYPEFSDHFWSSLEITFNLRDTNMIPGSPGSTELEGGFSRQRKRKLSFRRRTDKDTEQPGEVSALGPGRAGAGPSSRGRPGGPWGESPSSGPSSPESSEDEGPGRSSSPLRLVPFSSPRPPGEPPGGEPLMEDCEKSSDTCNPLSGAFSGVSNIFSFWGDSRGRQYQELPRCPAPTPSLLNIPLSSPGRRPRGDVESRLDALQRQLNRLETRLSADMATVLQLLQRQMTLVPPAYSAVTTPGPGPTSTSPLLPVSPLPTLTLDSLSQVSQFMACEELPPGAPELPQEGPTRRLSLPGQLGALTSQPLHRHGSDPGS

What is called IC50 is the concentration needed to halve the response being measured. One may read the EC50 as the concentration giving half of the maximal effect. A lower EC50 goes with an effect from little substance. `CCOC1=C[C@H]2O[C@]1(c1ccccc1)[C@@H]1C(=O)N(C)C(=O)[C@@H]12` [exo-3 f]: in series [1], the IC50 was more than 50 µM. The same molecule registered an EC50 in series [2] of more than 100 µM.
For `CCOC1=CC2OC1(c1ccccc1)C1C(=O)N(C)C(=O)C21` (stereo not drawn) [endo-3 f], in series [1], the half-inhibitory concentration (IC50) was more than 50 µM. This molecule gave a 50% effective concentration (EC50) in series [2] of more than 100 µM.
Taken in the same sequence, the figures for `CCOC1CC2OC1(c1ccccc1)C1C(=O)N(C)C(=O)C21` (stereo not drawn) [compound 7] were more than 50 µM and more than 100 µM.
With `CN1C(=O)C2C3CC(O)C(c4ccccc4)(O3)C2C1=O` (stereo not drawn) [compound 10], the in vitro clearance in series [3] was less than 0.53 mL/min/g. In addition, the IC50 in series [1] was more than 50 µM. Further, the concentration giving a half-maximal response (EC50) in series [2] is more than 100 µM.
